According to patent US10745370B2, “Farnesyl transferase inhibitors and uses thereof” (MACKAY MEMORIAL HOSPITAL, priority 2016, dated 2020):
Entries after “also recorded” stand apart in the source; their conditions may differ.

Tests used:
macrophages = assay: Trypan blue exclusion test on macrophages; format: cell-based; settings: trypan blue analysis, FIG. 2
Procedure: Mononuclear cells (MNCs) were separated from the peripheral blood of healthy donors obtained with written consent by use of Ficoll-Hypaque density centrifugation, followed by positive selection with magnetic anti-CD14 microbeads.
The isolated CD14^+ cells were cultivated in Minimum Essential Medium (MEM medium) supplemented with 10% fetal bovine serum (FBS), 100 ng/ml granulocyte-macrophage colony-stimulating factor (GM-CSF, Gentaur), and 50 ng/ml interleukin-4 (IL-4, R&D), and kept in an environment of 37° C. with 5% CO2/95% air.
To evaluate the effects of the present compound on dendritic cells, the CD14^+ cells were respectively treated with 10 μM of test compound (i.e., Mib-5, Mib-6, Mib-7, Mib-8, Mib-9, and Mib-10) on day 1. Then, on day 3, the cultured medium in each well was replenished by adding half the volume of the cultured medium containing the same treatment as indicated above. Then, on day 6, a cytokine cocktail containing IL-1, IL-6, and tumor necrosis factor-α (TNF-α) was added to induce maturation. On day 7, the differentiated dendritic cells were collected and subjected to further assays, including viability assay, morphology observation, and cell marker staining.
As to the effects of the present compound on macrophages, the CD14^+ cells were cultivated and treated as indicated above except the addition of cytokine cocktail on day 6. The macrophages were collected on day 6 and subjected to further assays, including viability assay, trypan blue exclusion test, morphology observation, cell marker staining, and phagocytotic activity analysis.
The dye exclusion test is used to determine the number of viable cells present in a cell suspension. […] In this test, the cells were first treated with a test compound (i.e., Mib-5, 6, 7, 8, 9 or 10) for a certain period of time (e.g., 72 hours), then the cells were harvested and re-suspended in suitable buffer solution. The cell suspension was then mixed with trypan blue dye and then visually examined to determine whether cells had taken up or excluded the dye. A viable cell will have a clear cytoplasm, whereas a nonviable cell will have a blue cytoplasm. The concentration required to reduce viability by 50% (IC50) after 72 hours was extrapolated from the dose-response curves by different concentrations of the test compound using a second-order polynomial regression model and analyzing with SigmaPlot Software (Systat Software Inc., San Jose, Calif.).

M1 macrophages = assay: Cell marker expression on M1 macrophages, flow cytometry; format: cell-based, human; settings: for CD14: M1 population after treatment: Table 5; for CD80: change in M1 population: Table 6; for CD206: change in M1: Table 7; for CD206 expression on M1 macrophages: control 14.27%; for CD80 expression on M1 macrophages: control 71.34%; for CD14 expression on M1 macrophages: control 99.83%
Procedure: (§1) M1 differentiation of freshly isolated CD14^+ cells was induced by the addition of lipopolysaccharide (LPS), while M2 differentiation of freshly isolated CD14^+ cells was induced by the addition of IL-4. Then, the present compounds (e.g., Mib-5, 6, 7, 8, 9, or 10) were added at the indicated dosages. 6 days later, the population of the differentiated macrophages were then determined by cell viability analysis.
(§2) The expression of various types of cell markers, such as CD14, CD206, and CD80 expressed on the surface of macrophages, and CD1a, CD14, CD83, and HLA-DR expressed on the dendritic cells, were respectively detected by fluorescein isothiocyanate (FITC) and phycoerythrin (PE)-conjugated monoclonal antibodies in FACS caliber flowcytometer. Monoclonal antibodies used in this examples included anti-CD14 (IgG-FITC), anti-CD206 (IgG-FITC), anti-CD80-PE, anti-CD1a-PE, anti-CD83-PE and anti-human leukocyte antigen (HLA)-DR-PE. Results were analyzed by CellQuest software.

M2 macrophages = assay: Cell marker expression on M2 macrophages, flow cytometry; format: cell-based, human; settings: for CD14: M2 population after treatment: Table 5; for CD80: change in M2 population: Table 6; for CD206: change in M2: Table 7; for CD80 expression on M2 macrophages: control 47.64%; for CD14 expression on M2 macrophages: control 55.66%; for CD206 expression on M2 macrophages: control 74.49%
Procedure: as §1, §2

[1] = test system: skin allograft, C57BL/6 donors, BALB/c recipients; assay: Skin allo-transplantation rejection model; format: in vivo, mice; settings: 10 mg/kg/day intraperitoneally, 20 days, FIG. 13
Procedure: Six- to eight-week-old male C57BL/6(H-2^b) and BALB/c(H-2^d) mice were purchased from the Animal Resource Center of the National Science Council of Taiwan (Taipei, Taiwan). All animal experiments were approved by the animal ethics committee of Mackay Memorial Hospital. Surgery for skin transplantation was performed with standardized procedures. In brief, a 2×1 cm full-thickness skin graft was harvested from the C57BL/6 donor mouse. A graft bed on the BALB/c recipient was prepared. The skin graft was sutured to the recipient's graft bed. Rejection was defined as necrosis of more than 80% of the epidermal surface of the graft. The tested agents included vehicle (as control), Mib-5 (10 mg/kg/day), Mib-7 (10 mg/kg/day) and rapamycin (1.5 mg/kg/day as positive control). Treatments were administered intraperitoneally daily for consecutive 20 days until rejection was observed.
The skin allo-transplantation model, by using C57BL/6(H-2^b) mice as donors and BALB/c(H-2^d) mice as recipients, was used to examine the effect of Mib-5 and Mib-7 on allograft survival, in which rapamycin served as a positive control.

COC1=CC(=O)[C@@]2(c3cc(=O)c4ccc(OC)cc4o3)[C@H](C[C@]3(C)[C@@H](C(=O)O)CC=C4[C@H]3CCCC4(C)C)C(C)=CC[C@H]2C1=O [Mib-5]
cell viability / cytotoxicity toward macrophages (macrophages): did not adversely affect cell viability; also recorded: no significant cytotoxicity | CD14: M1 population after treatment (M1 macrophages): remained relatively unchanged | CD80: change in M1 population (M1 macrophages): reduction | CD206: change in M1 (M1 macrophages): significant decrease | CD206 expression on M1 macrophages (M1 macrophages): 5.41% | CD80 expression on M1 macrophages (M1 macrophages): 11.94% | CD14 expression on M1 macrophages (M1 macrophages): 97.03% | CD14: M2 population after treatment (M2 macrophages): significant decrease | CD80: change in M2 population (M2 macrophages): increase | CD206: change in M2 (M2 macrophages): increase | CD80 expression on M2 macrophages (M2 macrophages): 53.03% | CD14 expression on M2 macrophages (M2 macrophages): 80.33% | CD206 expression on M2 macrophages (M2 macrophages): 78.77% | mean survival of skin allograft in recipient mice [1]: significantly prolonged

COC1=CC(=O)[C@@]2(c3cc(=O)c4c(O)cc(O)cc4o3)[C@H](C[C@]3(C)[C@@H](C(=O)O)CC=C4[C@H]3CCCC4(C)C)C(C)=CC[C@H]2C1=O [Mib-7]
cell viability / cytotoxicity toward macrophages (macrophages): did not adversely affect cell viability; also recorded: no significant cytotoxicity | CD14: M1 population after treatment (M1 macrophages): remained relatively unchanged | CD80: change in M1 population (M1 macrophages): reduction | CD206: change in M1 (M1 macrophages): significant decrease | CD206 expression on M1 macrophages (M1 macrophages): 4.9% | CD80 expression on M1 macrophages (M1 macrophages): 23.04% | CD14 expression on M1 macrophages (M1 macrophages): 98.66% | CD14: M2 population after treatment (M2 macrophages): significant decrease | CD80: change in M2 population (M2 macrophages): increase | CD206: change in M2 (M2 macrophages): increase | CD80 expression on M2 macrophages (M2 macrophages): 49.58% | CD14 expression on M2 macrophages (M2 macrophages): 89.76% | CD206 expression on M2 macrophages (M2 macrophages): 88.88% | mean survival of skin allograft in recipient mice [1]: significantly prolonged
